According to patent US8802597B2, “Herbicidal pyrimidines” (E I du Pont de Nemours and Company, priority 2003, dated 2014):

How the values were obtained:
Format in all cases: in vivo
[1] = system: Surinam grass (Brachiaria decumbens); assay: Test B pre/postemergence
In short: (§1)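 Formulation: non-phytotoxic solvent blend with surfactant. Timing: preemergence on seeds, postemergence at 1- to 4-leaf (2–18 cm). Assessment: visual, 0–100 against controls, after 13–15 days' greenhouse growth.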

[2] = system: barnyardgrass (Echinochloa crus-galli); assay: Test B pre/postemergence
In short: as §1

[3] = system: cocklebur (Xanthium strumarium); assay: Test B pre/postemergence
In short: as §1

corn (Zea mays) = assay: Test B pre/postemergence
In short: as §1

[4] = system: crabgrass (Digitaria sanguinalis); assay: Test B pre/postemergence
In short: as §1

[5] = system: giant foxtail (Setaria faberii); assay: Test B pre/postemergence
In short: as §1

[6] = system: lambsquarters (Chenopodium album); assay: Test B pre/postemergence
In short: as §1

[7] = system: morningglory (Ipomoea coccinea); assay: Test B pre/postemergence
In short: as §1

[8] = system: pigweed (Amaranthus retroflexus); assay: Test B pre/postemergence
In short: as §1

[9] = system: velvetleaf (Abutilon theophrasti); assay: Test B pre/postemergence
In short: as §1

[10] = system: wheat (Triticum aestivum); assay: Test B pre/postemergence
In short: as §1

[11] = system: blackgrass (Alopecurus myosuroides); assay: Test B postemergence; conditions: for Blackgrass plant response rating: 125 g ai/ha, scale 0 to 100 (0 no effect, 100 complete control); for Plant response rating, Blackgrass: 500 g ai/ha, scale 0 to 100
In short: as §1

wild oat (Avena fatua) = assay: Test B postemergence; conditions: for Oat, Wild plant response rating: 125 g ai/ha, scale 0 to 100 (0 no effect, 100 complete control); for Plant response rating, Oat, Wild: 500 g ai/ha, scale 0 to 100
In short: as §1

[12] = system: barnyardgrass (Echinochloa crus-galli); assay: Test B flooded paddy test; conditions: Flood, 1000 g ai/ha; scale 0 (no effect) to 100 (complete control)
In short: (§2)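 Visual injury scoring (0 = no effect, 100 = complete control) versus controls made 13 to 15 days after treatment in the greenhouse. Test species were grown in flooded paddy to the 2-leaf stage: rice, barnyardgrass, umbrella sedge, duck salad.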

[13] = system: duck salad (Heteranthera limosa); assay: Test B flooded paddy test; conditions: Flood, 1000 g ai/ha; scale 0 to 100
In short: as §2

rice (Oryza sativa) = assay: Test B flooded paddy test; conditions: Flood, 1000 g ai/ha; scale 0 to 100
In short: as §2

[14] = system: umbrella sedge (Cyperus difformis); assay: Test B flooded paddy test; conditions: Flood, 1000 g ai/ha; scale 0 to 100
In short: as §2

[15] = Postemergence, 125 g ai/ha, scale 0 to 100 (0 no effect, 100 complete control)
[16] = Postemergence, 500 g ai/ha, scale 0 to 100
[17] = Preemergence, 125 g ai/ha, scale 0 to 100 (0 no effect, 100 complete control)
[18] = Preemergence, 500 g ai/ha, scale 0 to 100 (0 no effect, 100 complete control)

## COC(=O)CNc1nc(C2CC2)nc(C(=O)OC)c1Br [Compound 10]
[1]; [15]
  Surinam Grass plant response rating: 10
[1]; [16]
  Plant response rating, Surinam Grass: 10
[1]; [17]
  Plant response rating, Surinam Grass: 0
[1]; [18]
  Surinam Grass plant response rating: 0
[2]; [15]
  Barnyardgrass plant response rating: 0
[2]; [16]
  Plant response rating, Barnyardgrass: 10
[2]; [17]
  Plant response rating, Barnyardgrass: 20
[2]; [18]
  Barnyardgrass plant response rating: 50
[3]; [15]
  Cocklebur plant response rating: 60
[3]; [16]
  Plant response rating, Cocklebur: 70
[3]; [17]
  Plant response rating, Cocklebur: 80
[3]; [18]
  Cocklebur plant response rating: 90
Corn (Zea mays); [15]
  Corn plant response rating: 0
Corn (Zea mays); [16]
  Plant response rating, Corn: 0
Corn (Zea mays); [17]
  Plant response rating, Corn: 0
Corn (Zea mays); [18]
  Corn plant response rating: 0
[4]; [15]
  Crabgrass plant response rating: 30
[4]; [16]
  Plant response rating, Crabgrass: 40
[4]; [17]
  Plant response rating, Crabgrass: 20
[4]; [18]
  Crabgrass plant response rating: 60
[5]; [15]
  Foxtail, Giant plant response rating: 0
[5]; [16]
  Plant response rating, Foxtail, Giant: 10
[5]; [17]
  Plant response rating, Foxtail, Giant: 0
[5]; [18]
  Foxtail, Giant plant response rating: 20
[6]; [15]
  Lambsquarters plant response rating: 80
[6]; [16]
  Plant response rating, Lambsquarters: 90
[6]; [18]
  Lambsquarters plant response rating: 90
[7]; [15]
  Morningglory plant response rating: 80
[7]; [16]
  Plant response rating, Morningglory: 80
[7]; [17]
  Plant response rating, Morningglory: 80
[7]; [18]
  Morningglory plant response rating: 90
[8]; [15]
  Pigweed plant response rating: 80
[8]; [16]
  Plant response rating, Pigweed: 90
[8]; [17]
  Plant response rating, Pigweed: 80
[8]; [18]
  Pigweed plant response rating: 90
[9]; [15]
  Velvetleaf plant response rating: 50
[9]; [16]
  Plant response rating, Velvetleaf: 80
[9]; [17]
  Plant response rating, Velvetleaf: 80
[9]; [18]
  Velvetleaf plant response rating: 90
[10]; [15]
  Wheat plant response rating: 0
[10]; [16]
  Plant response rating, Wheat: 0
[10]; [17]
  Plant response rating, Wheat: 0
[10]; [18]
  Wheat plant response rating: 0
[11]
  Blackgrass plant response rating: 0
  Plant response rating, Blackgrass: 0
Wild oat (Avena fatua)
  Oat, Wild plant response rating: 0
  Plant response rating, Oat, Wild: 10
[12]
  Plant response rating, Barnyardgrass: 0
[13]
  Plant response rating, Ducksalad: 0
Rice (Oryza sativa)
  Plant response rating, Rice: 0
[14]
  Plant response rating, Sedge, Umbrella: 0

## COCc1nc(C2CC2)nc(N)c1Br [Compound 11]
[1]; [15]
  Surinam Grass plant response rating: 20
[1]; [16]
  Plant response rating, Surinam Grass: 50
[1]; [17]
  Plant response rating, Surinam Grass: 10
[1]; [18]
  Surinam Grass plant response rating: 70
[2]; [15]
  Barnyardgrass plant response rating: 20
[2]; [16]
  Plant response rating, Barnyardgrass: 90
[2]; [17]
  Plant response rating, Barnyardgrass: 0
[2]; [18]
  Barnyardgrass plant response rating: 10
[3]; [15]
  Cocklebur plant response rating: 80
[3]; [16]
  Plant response rating, Cocklebur: 90
[3]; [17]
  Plant response rating, Cocklebur: 80
[3]; [18]
  Cocklebur plant response rating: 90
Corn (Zea mays); [15]
  Corn plant response rating: 0
Corn (Zea mays); [16]
  Plant response rating, Corn: 0
Corn (Zea mays); [17]
  Plant response rating, Corn: 0
Corn (Zea mays); [18]
  Corn plant response rating: 0
[4]; [15]
  Crabgrass plant response rating: 30
[4]; [16]
  Plant response rating, Crabgrass: 70
[4]; [17]
  Plant response rating, Crabgrass: 30
[4]; [18]
  Crabgrass plant response rating: 80
[5]; [15]
  Foxtail, Giant plant response rating: 10
[5]; [16]
  Plant response rating, Foxtail, Giant: 50
[5]; [17]
  Plant response rating, Foxtail, Giant: 10
[5]; [18]
  Foxtail, Giant plant response rating: 70
[6]; [15]
  Lambsquarters plant response rating: 90
[6]; [16]
  Plant response rating, Lambsquarters: 100
[6]; [17]
  Plant response rating, Lambsquarters: 100
[6]; [18]
  Lambsquarters plant response rating: 100
[7]; [15]
  Morningglory plant response rating: 80
[7]; [16]
  Plant response rating, Morningglory: 100
[7]; [17]
  Plant response rating, Morningglory: 80
[7]; [18]
  Morningglory plant response rating: 90
[8]; [15]
  Pigweed plant response rating: 80
[8]; [16]
  Plant response rating, Pigweed: 90
[8]; [17]
  Plant response rating, Pigweed: 80
[8]; [18]
  Pigweed plant response rating: 90
[9]; [15]
  Velvetleaf plant response rating: 60
[9]; [16]
  Plant response rating, Velvetleaf: 80
[9]; [17]
  Plant response rating, Velvetleaf: 80
[9]; [18]
  Velvetleaf plant response rating: 90
[10]; [15]
  Wheat plant response rating: 0
[10]; [16]
  Plant response rating, Wheat: 40
[10]; [17]
  Plant response rating, Wheat: 0
[10]; [18]
  Wheat plant response rating: 50
[11]
  Blackgrass plant response rating: 20
  Plant response rating, Blackgrass: 60
Wild oat (Avena fatua)
  Oat, Wild plant response rating: 0
  Plant response rating, Oat, Wild: 10
[12]
  Plant response rating, Barnyardgrass: 0
[13]
  Plant response rating, Ducksalad: 70
Rice (Oryza sativa)
  Plant response rating, Rice: 0
[14]
  Plant response rating, Sedge, Umbrella: 20

## CCOC(=O)Cc1nc(C2CC2)nc(N)c1Br [Compound 12]
[1]; [15]
  Surinam Grass plant response rating: 0
[1]; [16]
  Plant response rating, Surinam Grass: 0
[1]; [17]
  Plant response rating, Surinam Grass: 0
[2]; [15]
  Barnyardgrass plant response rating: 0
[2]; [16]
  Plant response rating, Barnyardgrass: 40
[2]; [17]
  Plant response rating, Barnyardgrass: 50
[2]; [18]
  Barnyardgrass plant response rating: 80
[3]; [15]
  Cocklebur plant response rating: 40
[3]; [16]
  Plant response rating, Cocklebur: 70
[3]; [17]
  Plant response rating, Cocklebur: 80
[3]; [18]
  Cocklebur plant response rating: 90
Corn (Zea mays); [15]
  Corn plant response rating: 0
Corn (Zea mays); [16]
  Plant response rating, Corn: 0
Corn (Zea mays); [17]
  Plant response rating, Corn: 0
Corn (Zea mays); [18]
  Corn plant response rating: 30
[4]; [15]
  Crabgrass plant response rating: 10
[4]; [16]
  Plant response rating, Crabgrass: 30
[4]; [17]
  Plant response rating, Crabgrass: 20
[4]; [18]
  Crabgrass plant response rating: 70
[5]; [15]
  Foxtail, Giant plant response rating: 0
[5]; [16]
  Plant response rating, Foxtail, Giant: 30
[5]; [17]
  Plant response rating, Foxtail, Giant: 20
[5]; [18]
  Foxtail, Giant plant response rating: 50
[6]; [15]
  Lambsquarters plant response rating: 60
[6]; [16]
  Plant response rating, Lambsquarters: 80
[6]; [17]
  Plant response rating, Lambsquarters: 90
[6]; [18]
  Lambsquarters plant response rating: 100
[7]; [15]
  Morningglory plant response rating: 60
[7]; [16]
  Plant response rating, Morningglory: 80
[7]; [17]
  Plant response rating, Morningglory: 70
[7]; [18]
  Morningglory plant response rating: 90
[8]; [15]
  Pigweed plant response rating: 50
[8]; [16]
  Plant response rating, Pigweed: 80
[8]; [17]
  Plant response rating, Pigweed: 80
[8]; [18]
  Pigweed plant response rating: 90
[9]; [15]
  Velvetleaf plant response rating: 20
[9]; [16]
  Plant response rating, Velvetleaf: 60
[9]; [17]
  Plant response rating, Velvetleaf: 80
[9]; [18]
  Velvetleaf plant response rating: 90
[10]; [15]
  Wheat plant response rating: 0
[10]; [16]
  Plant response rating, Wheat: 0
[10]; [17]
  Plant response rating, Wheat: 30
[10]; [18]
  Wheat plant response rating: 60
[11]
  Blackgrass plant response rating: 0
  Plant response rating, Blackgrass: 0
Wild oat (Avena fatua)
  Oat, Wild plant response rating: 0
  Plant response rating, Oat, Wild: 0
[12]
  Plant response rating, Barnyardgrass: 0
[13]
  Plant response rating, Ducksalad: 20
Rice (Oryza sativa)
  Plant response rating, Rice: 20
[14]
  Plant response rating, Sedge, Umbrella: 0
